Source: patent publication EP4567031A1, “HPK1 INHIBITOR, PREPARATION METHOD THEREFOR, AND USE THEREOF” (Beijing Earthwise Technology Co., Ltd., priority 2022, dated 2024)
pEC50: −log10 of the molar value.

Test system: human Pan T cells
Assay: Human Pan T cell IL-2 ELISA
Assay type: cell-based
Details: Anti-CD3 and Anti-CD28, 48 hours, supernatant IL-2 ELISA, read-out: IL-2 release, EC50
Method: A compound was dissolved in DMSO to 10 mM, and then diluted three-fold with DMSO to 9 dosages in a 96-well plate. Then, 10 µL of the diluted compound sample was transferred to a 96-well plate with 90 µL of cell culture medium, and the plate was shaken for 5 minutes. Then, 5 µL of the diluted compound sample was transferred to a 96-well plate with 120 µL of cell culture medium, and the plate was shaken for 5 minutes. According to the experimental design diagram, 50 µL of the diluted compound sample was transferred to a cell plate. Final concentrations of the compound in this assay were 10000.00, 5000, 2500, 1250, 625, 312.5, 156.25, 78.125 and 39.063 nM.
The assay was conducted in a 96-well plate. On the first day of the assay, Anti-CD3 was added to the 96-well plate and incubated in a 4 °C refrigerator overnight. On the second day of the assay, human Pan T cells were recovered, centrifuged and counted. The cell density was adjusted to 1*10^6 cells/ml. Then, 100 µL of cells were added to the 96-well plate washed with PBS and added with Anti-CD3; according to the experimental design diagram, 50 µL of diluted Anti-CD28 and 50 µL of the diluted compound were added to each well, centrifuged, and the cell plate was placed and incubated in an incubator for 48 hours; after 48 hours, the plate was centrifuged and the supernatant was collected for IL-2 ELISA.
The signal value of light absorption was converted into a multiple. Multiple = sample value/the average value of control wells. The average value of control wells refers to the value measured in wells with DMSO added. EC50 values were calculated by XLFit (version 5.3.1.3) in Excel. Equation: Y=Bottom + (Top-Bottom) / (1 + (EC50/X) ^ HillSlope). Table 6. Results of cellular activity of the compounds

With `COC1CCCn2c(-c3cc4c(c5c3CNC5=O)Nc3ccc(N5CCOCC5C)cc3C4(C)C)cnc21` (single isomer, unassigned) [Example 180] the pEC50 was 7.57.
Compound `COC1CCCn2c(-c3cc4c(c5c3CNC5=O)Nc3ccc(N5CCOCC5C)cc3C4(C)C)cnc21` (single isomer, unassigned) [Example 181] has a pEC50 of 7.59.

Same assay, conditions: Homo sapiens, T-cell, 48 h, Anti-CD3 and Anti-CD28, supernatant IL-2 ELISA, read-out: IL-2 release, EC50

First: COC1CCCn2c(-c3cc4c(c5c3CNC5=O)Nc3ccc(N5CCOCC5)cc3C4(C)C)nnc21 (racemic) [Example 120]
Second: COC1CCCn2c(-c3cc4c(c5c3CNC5=O)Nc3ccc(N5CCCOCC5)cc3C4(C)C)cnc21 (single isomer, unassigned) [Example 158]
The pEC50 of the first is 0.24 log units lower: 7.18 for the first, 7.42 for the second.

`COC1CCCn2c(-c3cc4c(c5c3CNC5=O)Nc3ccc(N5CCOCC5)nc3C4(C)C)cnc21` (single isomer, unassigned) [Example 25] and `COC1CCCn2c(-c3cc4c(c5c3CNC5=O)Nc3cc(C)c(N5CCOCC5)cc3C4(C)C)cnc21` (single isomer, unassigned) [Example 150] are within 0.2 log units of each other in pEC50: 7.48 for the first, 7.51 for the second.

Going from `CC1(C)c2cc(N3CCOC(C(C)(C)O)C3)ccc2Nc2c1cc(-c1cnc3cc(F)ccn13)c1c2C(=O)NC1` (single isomer, unassigned) [Example 93] to `Cc1ccn2c(-c3cc4c(c5c3CNC5=O)Nc3ccc(N5CCOC(C(C)(C)O)C5)cc3C4(C)C)cnc2c1` (single isomer, unassigned) [Example 106], the pEC50 falls from 8.20 to 7.74 (0.46 log units). The first is the more potent here.

`Cc1ccc2c(-c3cc4c(c5c3CNC5=O)Nc3ccc(N5CCOC(C(C)(C)O)C5)cc3C4(C)C)cnn2c1` (single isomer, unassigned) [Example 95] and `CC1(C)c2cc(N3CCOC(C(C)(C)O)C3)ccc2Nc2c1cc(-c1cnn3cc(Cl)ccc13)c1c2C(=O)NC1` (single isomer, unassigned) [Example 154] are within 0.2 log units of each other in pEC50: 8.11 for the first, 8.13 for the second.

Going from `CC1(C)c2cc(N3CCOC(C(C)(C)O)C3)ccc2Nc2c1cc(-c1cnc3cc(Cl)ccn13)c1c2C(=O)NC1` (single isomer, unassigned) [Example 125] to `CC1(C)c2cc(N3CCOC(C(C)(C)O)C3)ccc2Nc2c1cc(-c1cnc3cc(C#N)ccn13)c1c2C(=O)NC1` (single isomer, unassigned) [Example 133], the pEC50 falls from 8.14 to 7.65 (0.49 log units).

First: COc1c(F)ccn2c(-c3cc4c(c5c3CNC5=O)Nc3ccc(N5CCOC(C(C)(C)O)C5)cc3C4(C)C)cnc12 (single isomer, unassigned) [Example 127]
Second: Cc1ccn2c(-c3cc4c(c5c3CNC5=O)Nc3ccc(N5CCOC(C(C)(C)O)C5)cc3C4(C)C)cnc2n1 (single isomer, unassigned) [Example 162]
The pEC50 of the first is 0.29 log units lower: 7.91 for the first, 8.20 for the second.

`CC1(C)c2cc(N3CCOC(C(C)(C)O)C3)ccc2Nc2c1cc(-c1cnc3cc(C(F)F)ccn13)c1c2C(=O)NC1` (single isomer, unassigned) [Example 129] and `CCc1ncc(-c2cc3c(c4c2CNC4=O)Nc2ccc(N4CCOC(C(C)(C)O)C4)cc2C3(C)C)n1C` (single isomer, unassigned) [Example 134] are within 0.2 log units of each other in pEC50: 7.74 for the first, 7.71 for the second.

Compared with `COC1CCCn2c(-c3cc4c(c5c3CNC5=O)Nc3ccc(N5CCOC(C(C)(C)O)C5)cc3C4(C)C)cnc21` (single isomer, unassigned) [Example 132], `COC1CCn2c(-c3cc4c(c5c3CNC5=O)Nc3ccc(N5CCOC(C(C)(C)O)C5)cc3C4(C)C)cnc2C1` (single isomer, unassigned) [Example 142] is 0.40 log units lower in pEC50: 8.00 for the first, 7.60 for the second.

Compared with `CCOC1CCCn2c(-c3cc4c(c5c3CNC5=O)Nc3ccc(N5CCOCC5)cc3C4(C)C)cnc21` (single isomer, unassigned) [Example 136], `CC1(C)c2cc(N3CCOCC3)ccc2Nc2c1cc(-c1cnc3n1CCCC3OC1CC1)c1c2C(=O)NC1` (single isomer, unassigned) [Example 187] is 0.21 log units higher in pEC50: 7.61 for the first, 7.82 for the second.

`COC1CCCn2c(-c3cc4c(c5c3CNC5=O)Nc3ccc(N5CC(C)OC(C)C5)cc3C4(C)C)cnc21` (single isomer, unassigned) [Example 140] and `COC1CCCn2c(-c3cc4c(c5c3CNC5=O)Nc3ccc(N5CCOCC5C)cc3C4(C)C)cnc21` (single isomer, unassigned) [Example 155] are within 0.2 log units of each other in pEC50: 7.45 for the first, 7.57 for the second.

Compared with `Cn1c(-c2cc3c(c4c2CNC4=O)Nc2ccc(N4CCOC(C(C)(C)O)C4)cc2C3(C)C)cnc1C1CCOCC1` (single isomer, unassigned) [Example 141], `Cn1c(-c2cc3c(c4c2CNC4=O)Nc2ccc(N4CCOC(C(C)(C)O)C4)cc2C3(C)C)cnc1C1CCOC1` (single isomer, unassigned) [Example 147] is 0.31 log units higher in pEC50: 7.06 for the first, 7.37 for the second.

Going from `Cn1c(-c2cc3c(c4c2CNC4=O)Nc2ccc(N4CCOC(C(C)(C)O)C4)cc2C3(C)C)cnc1C1CCNC1` (single isomer, unassigned) [Example 143] to `Cn1c(-c2cc3c(c4c2CNC4=O)Nc2ccc(N4CCOC(C(C)(C)O)C4)cc2C3(C)C)cnc1OC1CCOC1` (single isomer, unassigned) [Example 153], the pEC50 rises from 6.23 to 7.33 (1.10 log units).

Compared with `COC1CCCn2c(-c3cc4c(c5c3CNC5=O)Nc3cc(C5CCOCC5)ccc3C4(C)C)cnc21` (single isomer, unassigned) [Example 144], `COC1CCCn2c(-c3cc4c(c5c3CNC5=O)Nc3ccc(C5CCOCC5)cc3C4(C)C)cnc21` (single isomer, unassigned) [Example 163] is 0.73 log units higher in pEC50: 6.87 for the first, 7.60 for the second. The second is the more potent here.

`CC1(C)c2cc(N3CCOC(C(C)(C)O)C3)ccc2Nc2c1cc(-c1cnn3cc(C#N)ccc13)c1c2C(=O)NC1` (single isomer, unassigned) [Example 145] and `COc1ccc2c(-c3cc4c(c5c3CNC5=O)Nc3ccc(N5CCOC(C(C)(C)O)C5)cc3C4(C)C)cnn2c1` (single isomer, unassigned) [Example 157] are the same in pEC50: 8.19 for the first, 8.19 for the second.

Going from `Cn1ncc2c(-c3cc4c(c5c3CNC5=O)Nc3ccc(N5CCOC(C(C)(C)O)C5)cc3C4(C)C)cncc21` (single isomer, unassigned) [Example 146] to `Cc1c(-c2cc3c(c4c2CNC4=O)Nc2ccc(N4CCOC(C(C)(C)O)C4)cc2C3(C)C)cnn1C1CC1` (single isomer, unassigned) [Example 148], the pEC50 falls from 8.24 to 7.66 (0.58 log units).

First: CCOc1ccc2c(-c3cc4c(c5c3CNC5=O)Nc3ccc(N5CCOC(C(C)(C)O)C5)cc3C4(C)C)cnn2c1 (single isomer, unassigned) [Example 151]
Second: COC1CCCc2c(-c3cc4c(c5c3CNC5=O)Nc3ccc(N5CCOCC5)cc3C4(C)C)cnn21 (single isomer, unassigned) [Example 177]
The pEC50 of the first is 0.44 log units lower: 7.16 for the first, 7.60 for the second. The second is the more potent here.

`COC1CCCn2c(-c3cc4c(c5c3CNC5=O)Nc3ccc(N5C6CCC5COC6)cc3C4(C)C)cnc21` (single isomer, unassigned) [Example 152] and `CCC1(C)c2cc(N3CCOCC3)ccc2Nc2c1cc(-c1cnc3n1CCCC3OC)c1c2C(=O)NC1` (single isomer, unassigned) [Example 159] are within 0.2 log units of each other in pEC50: 7.46 for the first, 7.63 for the second.

`COC1CCCn2c(-c3cc4c(c5c3CNC5=O)Nc3cc(C#N)c(N5CCOCC5)cc3C4(C)C)cnc21` (single isomer, unassigned) [Example 175] and `COc1cc2c(cc1N1CCOCC1)C(C)(C)c1cc(-c3cnc4n3CCCC4OC)c3c(c1N2)C(=O)NC3` (single isomer, unassigned) [Example 182] are within 0.2 log units of each other in pEC50: 7.85 for the first, 7.70 for the second.

Compound `COC1CCCn2c(-c3cc4c(c5c3CNC5=O)Nc3c(F)cc(N5CCOCC5)cc3C4(C)C)cnc21` (single isomer, unassigned) [Example 178] has a pEC50 of 7.72.
